The results in this text go back to US5234903A, “Chemically modified hemoglobin as an effective, stable non-immunogenic red blood cell substitute” (Enzon, Inc., priority 1990, dated 1993).

Data set [1] in a line: Oxygen binding: P50 (partial pressure of oxygen at 50% saturation) and Hill coefficient. As for the experimental part: Hemoglobin constitutes about 90% of the total protein in red blood cells. 100 ml of whole blood is capable of absorbing approximately 21 ml of gaseous oxygen due to the binding ability of hemoglobin. Equally important to the binding of oxygen, hemoglobin is also efficient in releasing the bound oxygen to tissues. The ability of hemoglobin to bind and release oxygen is often quantitatively expressed as the P50, the partial pressure of oxygen which results in fifty percent saturation of hemoglobin.
The resulting modified hemoglobin may then be tested to determine its P50 value so as to confirm that a clinically useful P50 has been achieved. Methods of P50 measurement include standard methods of analysis, such as, for example, methods utilizing the Hemox-Analyzer (TCS Medical Products Co., Huntingdon Valley, Pa.).
Following reduction, the hemoglobin may be reacted with an activated polyalkylene oxide under conditions which maintain the structural integrity of the oxygen binding site. In preferred embodiments of the invention, such conditions consist of a high anion concentration; in a specific embodiment this anion is chloride ion. In preferred embodiments, the chloride ion concentration is at least about 1.0M. […] According to the invention, the activated polyalkylene oxide may have one or more than one functional groups. The degree of modification for each preparation referred to in Table I is approximately 20 percent. This percent modification corresponds to about […] PEG molecules per each molecule of hemoglobin. The percent modification may be calculated according to the number of lysines modified by PEG and is based on a total of 48 surface lysines in bovine hemoglobin. The number may be determined by trinitrobenzene sulfonic acid (TNBS) assay (Habeef et al., 1966, Analyt. Biochem. 14:328-336).
(§1) The polyalkylene oxide modified hemoglobin may then be chemically characterized using methods known in the art. For example, the oxygen dissociation curve may be determined using standard techniques (for example, Imai et al., 1970, Biochim. Biophys. Acta 200: 189-196) allowing calculation of the P50 value. Additional parameters which would be desirable to measure include the methemoglobin content, the viscosity, the osmolality, the pH, and the Hill constant; the effects of changes in pH on the oxygen saturation curve may be determined as described in Bartels (1971, Blood oxygen dissociation curves: Mammals. in "Respiration and Circulation", Altman and Dittmer, Eds., Federation of American Societies for Experimental Biology, Bethesda).
Purification was carried out using a hollow-fiber ultrafiltration device with M.W. cutoff of 50 kD that is commercially available from American Fluid, Richboro, Pa. The advantage of this device relative to conventional tangential flat ultrafiltration membranes is its easy handling of viscous protein solutions such as the 6% PEG-Hb solution. Following purification, the P50 of the PEG-Hb was determined by a Hemox-Analyzer (TCS Medical Products Co., Huntington Valley, Pa.).

A further data set concerns bovine hemoglobin. The data set can be described thus: Reducing agents in bovine hemoglobin solution (deoxy Hb, Met Hb, free iron). The class given is biochemical. To be noted: for Free Iron / Met Hb / deoxy Hb: 30 mM agent, 5% bovine hemoglobin, pH 7.4, 4° C., inert atmosphere, 20 hours. As for the experimental part: 30 mM of each reducing agent tested, including cysteine, glutathione, N-acetyl cysteine, N-acetyl methionine and sodium ascorbate, was added to 5% bovine hemoglobin solution containing 0.lM Na phosphate, 0.1M NaHCO3 and 0.1M NaCl, with pH=7.4 and at 4° C., under an inert atmosphere. 20 hours later, the deoxyhemoglobin (deoxy Hb), Met Hb and free iron concentrations were determined. Met Hb and deoxy Hb concentrations were measured using an OSM3 Hemoximeter (Radiometer) and free iron was determined by the ferrozine assay method (Carter, 1971, Analyt. Biochem. 40:450-458).

A short description of data set [2]: Viscosity and colloid osmotic pressure of PEG-Hb solutions. The data set is classed as physicochemical. To be noted: for colloid osmotic pressure: 6 percent (g/dl) product; for Viscosity: 6 percent (g/dl), 37° C.
Description: as §1

Where [3] appears, read: [Cl-] of reaction solution 0.1 M, degree of modification approximately 20 percent.
Where [4] appears, read: [Cl-] of reaction solution 0.5 M, degree of modification approximately 20 percent.
[5] abbreviates: [Cl-] of reaction solution 1.0 M, degree of modification approximately 20 percent.
[6] abbreviates: [Cl-] of reaction solution 1.5 M, degree of modification approximately 20 percent.
Where [7] appears, read: [Cl-] of reaction solution 2.0 M, degree of modification approximately 20 percent.
The mark [8] stands for this setting: degree of modification 3%, 0.15M [Cl-].
Where [9] appears, read: degree of modification 6%, 0.15M [Cl-].
Setting [10] is: 30 mM sodium bisulfite, 59% deoxyHb before PEGylation.
[11] abbreviates: 50 mM sodium bisulfite, 63% deoxyHb before PEGylation.
[12] abbreviates: 100 mM sodium bisulfite, 75% deoxyHb before PEGylation.
Setting [13] is: 175 mM sodium bisulfite, 95-100% deoxyHb before PEGylation.
Setting [14] is: native, unmodified (footnote of Table VII).
Setting [15] is: 0% deoxyHb before PEGylation, SC-PEG.
Setting [16] is: 20% deoxyHb before PEGylation, SC-PEG.
[17] abbreviates: 35% deoxyHb before PEGylation, SC-PEG.
[18] abbreviates: 50% deoxyHb before PEGylation, SC-PEG.
[19] abbreviates: 70% deoxyHb before PEGylation, SC-PEG.
[20] abbreviates: 90% deoxyHb before PEGylation, SC-PEG.
Setting [21] is: 95% deoxyHb before PEGylation, SC-PEG.
The mark [22] stands for this setting: 0% deoxyHb before PEGylation, BSC-PEG.
Where [23] appears, read: 25% deoxyHb before PEGylation, BSC-PEG.
[24] abbreviates: 45% deoxyHb before PEGylation, BSC-PEG.
The mark [25] stands for this setting: 61% deoxyHb before PEGylation, BSC-PEG.
Where [26] appears, read: 76% deoxyHb before PEGylation, BSC-PEG.
Where [27] appears, read: 93% deoxyHb before PEGylation, BSC-PEG.

For the compound “SC-PEG(5000)-bHb: bovine hemoglobin modified with monofunctional SC-PEG of molecular weight 5000”, the P50 amounted to 22 mm Hg in data set [1] (setting [3]); 24 mm Hg in data set [1] (setting [4]); 29 mm Hg in data set [1] (setting [5]); 30 mm Hg in data set [1] (setting [6]); 30 mm Hg in data set [1] (setting [7]); 24 mm Hg in data set [1] (reacted in 0.1M [Cl-], degree of modification 5%). Further, the P50 in data set [1] (reacted in 0.1M [Cl-], degree of modification 10%) is listed as 22 mm Hg; in data set [1] (reacted in 0.1M [Cl-], degree of modification 20%), 22 mm Hg; in data set [1] (reacted in 0.5M [Cl-], degree of modification 5%) it was 28 mm Hg; in data set [1] (reacted in 0.5M [Cl-], degree of modification 10%), 24 mm Hg; in data set [1] (reacted in 0.5M [Cl-], degree of modification 20%) it was 24 mm Hg; in data set [1] (reacted in 1.0M [Cl-], degree of modification 5%), 30 mm Hg. Also, the P50 was 29 mm Hg in data set [1] (reacted in 1.0M [Cl-], degree of modification 10%) and 29 mm Hg in data set [1] (reacted in 1.0M [Cl-], degree of modification 20%).
`O=C1O[C@H]([C@@H](O)CO)C([O-])=C1O.[Na+]` [Na-Ascorbate, sodium ascorbate]: in the data set with bovine hemoglobin, the Free Iron was 233.7 µg/dL, the “Met Hb” value came to 4.1% and the “deoxy Hb” value was determined as 96.7%.
Take “BSC-PEG(4600)-bHb: bovine hemoglobin modified with bifunctional BSC-PEG of molecular weight 4600”: the P50 is listed as 34 mm Hg in data set [1] (setting [8]); 34 mm Hg in data set [1] (degree of modification 4.5%, 0.15M [Cl-]); 32.5 mm Hg in data set [1] (setting [9]).
On to `CC(=O)N[C@@H](CS)C(=O)O` [N-acetyl cysteine], for which, in the data set with bovine hemoglobin, the “Met Hb” value is given as 18.8% and the “deoxy Hb” value is reported as 0%.
“Example IX: bovine hemoglobin deoxygenated with sodium bisulfite, then modified using monofunctionally activated SC-PEG”: the “Hill Coefficient” value stood at 1.8 in data set [1] (setting [10]), 1.8 in data set [1] (setting [11]), 2.2 in data set [1] (setting [12]) and 2.0 in data set [1] (setting [13]). For the same compound, the “P50 of PEG-Hb” value in data set [1] (setting [10]) is given as 18.5 mmHg; in data set [1] (setting [11]) it was 19.0 mmHg; in data set [1] (setting [12]) it was 28.0 mmHg; in data set [1] (setting [13]), 24.0 mmHg.
Regarding “SC-PEG(4000)-bHb: bovine hemoglobin modified with monofunctional SC-PEG of molecular weight 4000”, the P50 came out at 24 mm Hg in data set [1] (setting [3]); 28 mm Hg in data set [1] (setting [4]); 30 mm Hg in data set [1] (setting [5]); 30 mm Hg in data set [1] (setting [6]); 30 mm Hg in data set [1] (setting [7]).
`N[C@@H](CCC(=O)N[C@@H](CS)C(=O)NCC(=O)O)C(=O)O` [GSH, reduced glutathione]: in the data set with bovine hemoglobin, the “Met Hb” value was 11.9% and the “deoxy Hb” value worked out at 9.7%.
On to “SC-PEG(2000)-bHb: bovine hemoglobin modified with monofunctional SC-PEG of molecular weight 2000”, for which the P50 worked out at 24 mm Hg in data set [1] (setting [3]); 30 mm Hg in data set [1] (setting [4]); 32 mm Hg in data set [1] (setting [5]); 31 mm Hg in data set [1] (setting [6]); 32 mm Hg in data set [1] (setting [7]).
In the case of “Bifunctional PEG-modified bHb: bovine hemoglobin reacted with BSC-PEG”, in data set [1] (in words), the “P50 vs monofunctional PEG-modified bHb” value is given as “higher P50 than monofunctional PEG-modified bHb”.
With “native stromafree bHb: native stromafree bHb from Biopure, Boston, MA [reference compound]”, in data set [1] (setting [14]), the “Hill Coefficient” value was 2.3 and the P50 was 28 mmHg.
As to “Example VIII: bovine hemoglobin partially deoxygenated by gas exchange, modified with SC-PEG (M.W. 5141), SC-PEG:Hb 12:1”, in data set [2], the colloid osmotic pressure turned out to be 24 mmHg. Besides, the Viscosity in data set [2] is listed as 4.2 cp. Moreover, the Hill coeff. is listed as 1.7 in data set [1] (setting [15]); 1.7 in data set [1] (setting [16]); 1.7 in data set [1] (setting [17]); 2.0 in data set [1] (setting [18]); 2.2 in data set [1] (setting [19]); 2.0 in data set [1] (setting [20]). Further, the Hill coeff. in data set [1] (setting [21]) is reported as 2.0. Further, the P50 in data set [1] (setting [15]) is 18 mmHg; in data set [1] (setting [16]), 18 mmHg; in data set [1] (setting [17]) it was 18 mmHg; in data set [1] (setting [18]), 24 mmHg; in data set [1] (setting [19]) it was 28 mmHg; in data set [1] (setting [20]), 22 mmHg. The compound further registered a P50 in data set [1] (setting [21]) of 22 mmHg.
For the compound `N[C@@H](CS)C(=O)O` [Cysteine, cysteine], in the data set on bovine hemoglobin, the Free Iron stood at 4.26 µg/dL, the “Met Hb” value is recorded as 0.8% and the “deoxy Hb” value is given as 97.6%. Further, in the data set on bovine hemoglobin (in words), the “deoxyhemoglobin level, ranking among agents” value is given as “highest levels of deoxyhemoglobin”; the “methemoglobin and free iron level, ranking among agents” value was “lowest levels of methemoglobin and free iron”.
As to `CSCC[C@H](NC(C)=O)C(=O)O` [N-acetyl methionine], in the data set on bovine hemoglobin, the “Met Hb” value is on record as 19.6% and the “deoxy Hb” value is 0%.
Turning to “BSC-PEG(6000)-bHb: bovine hemoglobin modified with bifunctional BSC-PEG of molecular weight 6000”, the P50 amounted to 38.5 mm Hg in data set [1] (setting [8]); 36.5 mm Hg in data set [1] (setting [9]); 36.5 mm Hg in data set [1] (degree of modification 7.3%, 0.15M [Cl-]).
As to “Example X: bovine hemoglobin deoxygenated by gas exchange, modified with BSC-PEG (M.W. 5000), BSC-PEG:Hb 2.5:1, crosslinked”, the colloid osmotic pressure in data set [2] is given as 20 mmHg. The Viscosity in data set [2] is on record as 4.5 cp. Also, the Hill coeff. is given as 1.8 in data set [1] (setting [22]); 1.9 in data set [1] (setting [23]); 2.0 in data set [1] (setting [24]); 2.3 in data set [1] (setting [25]); 2.3 in data set [1] (setting [26]); 2.0 in data set [1] (setting [27]). The P50 in data set [1] (setting [22]) is given as 20 mmHg; in data set [1] (setting [23]), 22 mmHg; in data set [1] (setting [24]), 25 mmHg; in data set [1] (setting [25]), 30 mmHg; in data set [1] (setting [26]), 31 mmHg; in data set [1] (setting [27]) it was 26 mmHg.
